According to US20240269139A1, “COMPOUNDS FOR TARGETED PROTEIN DEGRADATION OF KINASES” (DANA-FARBER CANCER INSTITUTE, INC., priority 2020, published 2024):
Where two headings read alike, the source gives them in different places.

Assays:
Format in all cases: cell-based
[1] = biological target: protein kinases (human kinome) (Homo sapiens, UniProt P54819); conditions: AK2 (P54819)
[2] = biological target: protein kinases (human kinome) (Homo sapiens, UniProt Q13164); conditions: MAPK7 (Q13164-1)
[3] = biological target: protein kinases (human kinome) (Homo sapiens, UniProt Q9BYT3); conditions: STK33 (Q9BYT3-1)
[4] = biological target: T1, protein kinases (human kinome) (Homo sapiens, UniProt Q08881); conditions: for logFC: ITK (Q08881) protein abundance, degrader vs DMSO, down
T1 sequence (Q08881 1-620): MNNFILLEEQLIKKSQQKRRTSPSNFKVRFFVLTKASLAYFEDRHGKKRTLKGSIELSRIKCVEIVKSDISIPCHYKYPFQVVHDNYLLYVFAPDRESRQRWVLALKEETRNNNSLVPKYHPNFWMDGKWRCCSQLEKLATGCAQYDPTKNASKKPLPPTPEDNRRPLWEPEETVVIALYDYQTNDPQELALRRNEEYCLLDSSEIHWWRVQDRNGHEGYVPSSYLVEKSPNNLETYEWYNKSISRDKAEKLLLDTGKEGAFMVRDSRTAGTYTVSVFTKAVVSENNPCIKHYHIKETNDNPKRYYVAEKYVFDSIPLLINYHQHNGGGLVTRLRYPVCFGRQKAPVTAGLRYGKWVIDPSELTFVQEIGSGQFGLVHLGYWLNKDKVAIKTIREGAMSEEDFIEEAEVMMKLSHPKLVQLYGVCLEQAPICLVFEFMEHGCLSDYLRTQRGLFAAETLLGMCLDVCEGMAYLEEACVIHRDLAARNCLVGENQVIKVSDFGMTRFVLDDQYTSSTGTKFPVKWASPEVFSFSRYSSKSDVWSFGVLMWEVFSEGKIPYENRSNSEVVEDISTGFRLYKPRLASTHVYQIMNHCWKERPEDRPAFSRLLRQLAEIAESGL

[5] = biological target: T2, protein kinases (human kinome) (Homo sapiens, UniProt P42680); conditions: TEC (P42680)
T2 sequence (P42680 1-631): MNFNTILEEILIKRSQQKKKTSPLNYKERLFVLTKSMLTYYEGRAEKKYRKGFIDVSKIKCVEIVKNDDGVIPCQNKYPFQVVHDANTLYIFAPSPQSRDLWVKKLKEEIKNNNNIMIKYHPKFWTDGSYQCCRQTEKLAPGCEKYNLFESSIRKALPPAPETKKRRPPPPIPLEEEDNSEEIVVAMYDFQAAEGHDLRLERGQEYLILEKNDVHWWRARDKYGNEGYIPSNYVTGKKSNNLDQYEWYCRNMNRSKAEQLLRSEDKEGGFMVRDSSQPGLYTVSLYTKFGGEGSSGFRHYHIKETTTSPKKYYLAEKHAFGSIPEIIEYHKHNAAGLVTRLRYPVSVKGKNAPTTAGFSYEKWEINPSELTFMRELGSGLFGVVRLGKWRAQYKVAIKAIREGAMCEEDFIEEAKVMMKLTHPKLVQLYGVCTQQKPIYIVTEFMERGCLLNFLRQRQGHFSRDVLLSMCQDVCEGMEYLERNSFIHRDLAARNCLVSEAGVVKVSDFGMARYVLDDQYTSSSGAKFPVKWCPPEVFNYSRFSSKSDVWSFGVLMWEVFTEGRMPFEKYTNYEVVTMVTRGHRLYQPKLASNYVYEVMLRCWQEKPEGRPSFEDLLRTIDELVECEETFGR

[6] = experiment wp076, direction down

Chain of protein kinases (human kinome) (Homo sapiens, UniProt Q9BYT3) (Q9BYT3 whole entry): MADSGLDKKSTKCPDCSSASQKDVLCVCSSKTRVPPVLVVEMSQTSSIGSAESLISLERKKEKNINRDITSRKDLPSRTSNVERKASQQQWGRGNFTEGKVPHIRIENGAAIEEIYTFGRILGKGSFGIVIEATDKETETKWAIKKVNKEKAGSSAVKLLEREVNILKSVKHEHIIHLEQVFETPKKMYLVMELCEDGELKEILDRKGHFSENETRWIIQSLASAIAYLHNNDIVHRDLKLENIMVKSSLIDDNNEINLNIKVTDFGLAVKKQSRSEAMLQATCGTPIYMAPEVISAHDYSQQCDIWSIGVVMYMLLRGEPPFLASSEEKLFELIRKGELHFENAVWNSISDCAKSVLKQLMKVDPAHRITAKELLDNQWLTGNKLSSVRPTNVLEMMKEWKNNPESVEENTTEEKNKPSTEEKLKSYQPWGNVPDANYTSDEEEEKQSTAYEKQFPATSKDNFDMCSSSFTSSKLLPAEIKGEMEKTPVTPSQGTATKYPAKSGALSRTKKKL
Chain of protein kinases (human kinome) (Homo sapiens, UniProt Q13164) (Q13164 whole entry): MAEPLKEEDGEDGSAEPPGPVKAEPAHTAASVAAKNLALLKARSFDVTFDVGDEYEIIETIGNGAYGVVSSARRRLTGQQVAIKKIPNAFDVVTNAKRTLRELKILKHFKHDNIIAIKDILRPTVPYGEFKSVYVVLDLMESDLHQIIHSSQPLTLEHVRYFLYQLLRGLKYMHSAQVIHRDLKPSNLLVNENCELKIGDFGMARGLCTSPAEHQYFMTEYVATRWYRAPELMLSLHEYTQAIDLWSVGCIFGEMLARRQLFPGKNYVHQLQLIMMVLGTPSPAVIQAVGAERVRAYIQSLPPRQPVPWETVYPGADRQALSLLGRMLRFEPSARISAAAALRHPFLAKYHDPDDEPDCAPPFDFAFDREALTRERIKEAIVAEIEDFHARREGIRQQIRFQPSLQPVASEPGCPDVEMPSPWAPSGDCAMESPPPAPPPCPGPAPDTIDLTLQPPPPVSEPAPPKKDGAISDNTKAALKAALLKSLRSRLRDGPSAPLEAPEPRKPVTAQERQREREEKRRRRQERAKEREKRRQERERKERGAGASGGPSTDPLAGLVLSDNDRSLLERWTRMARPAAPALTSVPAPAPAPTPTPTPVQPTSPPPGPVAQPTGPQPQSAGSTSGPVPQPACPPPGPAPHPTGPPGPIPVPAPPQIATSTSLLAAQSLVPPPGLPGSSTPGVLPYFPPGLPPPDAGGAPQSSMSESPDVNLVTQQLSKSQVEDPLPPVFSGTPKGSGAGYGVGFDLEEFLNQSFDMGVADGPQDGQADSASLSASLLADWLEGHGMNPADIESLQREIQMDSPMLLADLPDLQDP

## CC(=O)c1c(C)c2cnc(Nc3ccc(N4CCN(CCOCCOCCOCCNC(=O)COc5cccc6c5C(=O)N(C5CCC(=O)NC5=O)C6=O)CC4)cn3)nc2n(C2CCCC2)c1=O (centres unmarked) [BSJ.03.123]
[1]; experiment wp084
  logFC: −0.395

## CN(C)C(=O)c1cc2cnc(Nc3ccc(N4CCN(CCCCNC(=O)COc5cccc6c5C(=O)N(C5CCC(=O)NC5=O)C6=O)CC4)cn3)nc2n1C1CCCC1 (centres unmarked) [BSJ.04.132]
[1]; experiment wp084
  logFC: −0.3323

## CNC(=O)c1ccccc1Nc1cc(Nc2ccc(N3CCN(CCOCCOCCNC(=O)CNc4cccc5c4C(=O)N(C4CCC(=O)NC4=O)C5=O)CC3)cc2OC)ncc1C(F)(F)F (centres unmarked) [MFH.5.103.1]
[2]; experiment wp076
  logFC: −0.4142
[2]; [6]
  logFC: −0.4142
[3]; experiment wp076
  logFC: −2.784
[3]; [6]
  logFC: −2.784

## Cc1ccc(C(=O)Nc2ccc(CN3CCN(CCCOCCOCCOCCNC(=O)COc4cccc5c4C(=O)N(C4CCC(=O)NC4=O)C5=O)CC3)c(C(F)(F)F)c2)cc1C#Cc1cnc2cccnn12 (centres unmarked) [SB1.G.187]
[1]; experiment wp056
  logFC: −0.3691

## CC(C)S(=O)(=O)c1ccccc1Nc1nc(Nc2ccc(N3CCN(CCOCCNC(=O)CNc4cccc5c4C(=O)N(C4CCC(=O)NC4=O)C5=O)CC3)cc2)ncc1Cl (centres unmarked) [SK.3.91]
[2]; experiment wp016, 1 uM
  logFC: −0.3924
[2]; experiment wp016, 1 uM, direction down
  logFC: −0.3924
[4]; Experiment wp103
  logFC ITK (Q08881): −1.663
[4]; Experiment wp107
  logFC ITK (Q08881): −1.963
[4]; Experiment wp160, 2 hr
  logFC ITK (Q08881): −0.799
[4]; 2 hr
  logFC: −0.799
[4]; 4 hr
  logFC: −1.783
[4]; experiment wp016
  logFC ITK (Q08881): −2.308
[4]; experiment wp016, 1 uM
  logFC ITK (Q08881): −2.033
[4]; experiment wp016, 1 uM, direction of change down
  logFC ITK (Q08881): −2.033
[4]; experiment wp016, direction of change down
  logFC ITK (Q08881): −2.308
[4]; experiment wp103, direction of change down
  logFC ITK (Q08881): −1.663
[4]; experiment wp107, direction of change down
  logFC ITK (Q08881): −1.963
[4]; experiment wp133, 1 hr
  logFC ITK (Q08881): −0.3741
[4]; experiment wp133, 1 hr, direction of change down
  logFC ITK (Q08881): −0.3741
[4]; experiment wp133, 2 hr
  logFC ITK (Q08881): −0.8321
[4]; experiment wp133, 2 hr, direction of change down
  logFC ITK (Q08881): −0.8321
[4]; experiment wp133, 4 hr
  logFC ITK (Q08881): −1.654
[4]; experiment wp133, 4 hr, direction of change down
  logFC ITK (Q08881): −1.654
[4]; experiment wp160, 4 hr
  logFC ITK (Q08881): −1.783
[5]; experiment wp103
  logFC: −0.6497
[5]; experiment wp103, direction down
  logFC: −0.6497
[5]; experiment wp107
  logFC: −1.146
[5]; experiment wp107, direction down
  logFC: −1.146
[3]; experiment wp105
  logFC: −2.057
[3]; experiment wp105, direction down
  logFC: −2.057
[3]; experiment wp172
  logFC: −2.227
[3]; experiment wp172, direction down
  logFC: −2.227
